Earlier results, collected in patent EP2732812A1, “Pramipexole retard tablet formulation” (Aristo Pharma GmbH, priority 2012, dated 2014).
Counter-ions that a name gives are not always drawn.

Löslichkeit In Puffer (buffer, pH-Wert von 2,0 bis 7,4): > 10 mg/mL | Löslichkeit In Wasser (in water): > 20 mg/mL
SMILES: CCCN[C@H]1CCc2nc(N)sc2C1 [Pramipexoldihydrochlorid Monohydrat]
